Source: patent US8178506B2, “Oligomeric compounds and compositions for use in modulation of small non-coding RNAs” (Regulus Therapeutics Inc., priority 2003, dated 2012)
In the oligonucleotide strings, read from the 5' end, every base follows the letter of its sugar. An asterisk marks phosphorothioate; unmarked linkages are phosphodiester. Other units and linkages are bracketed, terminal groups are in braces. A string of capitals states the bases alone. e = 2'-O-(2-methoxyethyl) (MOE); [5mC] = 5-methylcytosine; d = 2'-deoxy (DNA)

Columns and labels:
[1] = test system: BJ, B16-F10, T47D, T47Dp53 and HeLa cells; test: Cell cycle assay (propidium iodide flow cytometry), cell line panel; format: cell-based; settings: for G1 (percentage of cells in phase of the cell cycle) / G2/M (percentage of cells in phase of the cell cycle) / S (percentage of cells in phase of the cell cycle) / SubG1 (percentage of cells in phase of the cell cycle) / aneuploid (percentage of cells): 150 nM oligomeric compound, 4.5 μg/ml LIPOFECTIN, after 72 hours, propidium iodide flow cytometry
[2] = test system: adipocytes; test: Triglyceride accumulation assay in adipocytes; format: cell-based, human
[3] = test system: aP2; test: aP2 mRNA expression in adipocytes (real-time PCR); format: cell-based, human; settings: for aP2 mRNA: differentiating adipocytes transfected with oligomeric compound, Table 75; for AP2 mRNA: differentiating adipocytes, control = treatment with ISIS 342673
[4] = test system: PPARγ; test: PPARγ mRNA expression in adipocytes (real-time PCR); format: cell-based, human
[5] = test system: Glut4; test: Glut4 mRNA expression in adipocytes (real-time PCR); format: cell-based, human
[6] = test system: HSL; test: HSL mRNA expression in adipocytes (real-time PCR); format: cell-based, human
[7] = test system: HeLa cells; test: Cell cycle assay in HeLa cells; format: cell-based, human; settings: HeLa cells, 150 nM oligomeric compound
[8] = differentiating adipocytes transfected with oligomeric compound, Table 75
[9] = 24 hours, relative to untreated control (UTC = 100)
[10] = 48 hours after treatment, relative to untreated control (UTC=100)
[11] = Table 17, differentiating adipocytes, control = treatment with ISIS 342673
[12] = Table 18, differentiating adipocytes, control = treatment with ISIS 342673

Substance	TG (triglyceride accumulation) [2, 8]	aP2 mRNA [3]	PPAR gamma mRNA [4, 8]	GLUT4 mRNA [5, 8]	HSL mRNA [6, 8]	also measured
328364 (eT*e[5mC]*eT*eT*eA*dA*dG*dT*d[5mC]*dA*d[5mC]*dA*dA*dA*dT*e[5mC]*eA*eG*e[5mC]*eA) [compound 328364]	–	–	–	–	–	G1 (percentage of cells in phase of the cell cycle) [1]: 61.5%; G2/M (percentage of cells in phase of the cell cycle) [1]: 14.3%; S (percentage of cells in phase of the cell cycle) [1]: 24.2%; SubG1 (percentage of cells in phase of the cell cycle) [1]: 1.9%; aneuploid (percentage of cells) [1]: 15.1%
340348 (antisense CTACCTGCACGAACAGCACTTT; all 2'-MOE, all phosphorothioate, methylation of C not given here) [compound 340348]	48 percentage of untreated control (UTC)	68 percentage of untreated control (UTC)	78 percentage of untreated control (UTC)	52 percentage of untreated control (UTC)	57 percentage of untreated control (UTC)	G1 (percentage of cells in phase of the cell cycle) [1]: 53.9%; G2/M (percentage of cells in phase of the cell cycle) [1]: 14.3%; S (percentage of cells in phase of the cell cycle) [1]: 31.8%; SubG1 (percentage of cells in phase of the cell cycle) [1]: 14.1%; aneuploid (percentage of cells) [1]: 12.3%
340365 (antisense TACTTTATATAGAACACAAG; sugars from the 5' end e5 d10 e5, all phosphorothioate, methylation of C not given here) [compound 340365]	–	–	–	–	–	% cells aneuploid [7, 9]: 84%; % cells in cell cycle phase G1 [7, 9]: 125%; % cells in cell cycle phase G2/M [7, 9]: 114%; % cells in cell cycle phase S [7, 9]: 71%; % cells in cell cycle phase subG1 [7, 9]: 109%; % cells in cell cycle phase: G1 [7, 10]: 99%; % cells in cell cycle phase: G2/M [7, 10]: 109%; % cells in cell cycle phase: S [7, 10]: 94%; % cells in cell cycle phase: aneuploid [7, 10]: 129%; % cells in cell cycle phase: subG1 [7, 10]: 71%; G1 (percentage of cells in phase of the cell cycle) [1]: 55.2%; G2/M (percentage of cells in phase of the cell cycle) [1]: 15.4%; S (percentage of cells in phase of the cell cycle) [1]: 29.4%; SubG1 (percentage of cells in phase of the cell cycle) [1]: 4.3%; aneuploid (percentage of cells) [1]: 18.3%
346920 (AGCAAAAAUGUGCUAGUGCCAAA; all 2'-MOE, all phosphorothioate, methylation of C and T or U not given here) [compound 346920]	63 percentage of untreated control (UTC)	70 percentage of untreated control (UTC)	70 percentage of untreated control (UTC)	61 percentage of untreated control (UTC)	53 percentage of untreated control (UTC)	–
346921 (AACAACCAGCUAAGACACUGCCA; all 2'-MOE, all phosphorothioate, methylation of C and T or U not given here) [compound 346921]	52 percentage of untreated control (UTC)	69 percentage of untreated control (UTC)	62 percentage of untreated control (UTC)	51 percentage of untreated control (UTC)	49 percentage of untreated control (UTC)	–
348116 (UUCGCCCUCUCAACCCAGCUUUU; anti-miR; all 2'-MOE, all phosphorothioate, methylation of C and T or U not given here) [compound 348116]	43 percentage of untreated control (UTC)	79 percentage of untreated control (UTC)	76 percentage of untreated control (UTC)	48 percentage of untreated control (UTC)	58 percentage of untreated control (UTC)	–
348117 (GAACCCACAAUCCCUGGCUUA; all 2'-MOE, all phosphorothioate, methylation of C and T or U not given here) [compound 348117]	66 percentage of untreated control (UTC)	70 percentage of untreated control (UTC)	65 percentage of untreated control (UTC)	73 percentage of untreated control (UTC)	55 percentage of untreated control (UTC)	–
348119 (UCCAUAAAGUAGGAAACACUACA; anti-miR; all 2'-MOE, all phosphorothioate, methylation of C and T or U not given here) [compound 348119]	91 percentage of untreated control (UTC)	81 percentage of untreated control (UTC)	90 percentage of untreated control (UTC)	86 percentage of untreated control (UTC)	76 percentage of untreated control (UTC)	–
348124 (CACAAAUUCGGUUCUACAGGGUA; anti-miR; all 2'-MOE, all phosphorothioate, methylation of C and T or U not given here) [compound 348124]	53 percentage of untreated control (UTC)	59 percentage of untreated control (UTC)	63 percentage of untreated control (UTC)	41 percentage of untreated control (UTC)	43 percentage of untreated control (UTC)	–
348125 (GCUGGAUGCAAACCUGCAAAACU; anti-miR; all 2'-MOE, all phosphorothioate, methylation of C and T or U not given here) [compound 348125]	79 percentage of untreated control (UTC)	67 percentage of untreated control (UTC)	64 percentage of untreated control (UTC)	65 percentage of untreated control (UTC)	64 percentage of untreated control (UTC)	–
348127 (GCAGAACUUAGCCACUGUGAA; all 2'-MOE, all phosphorothioate, methylation of C and T or U not given here) [compound 348127]	155 percentage of untreated control (UTC)	185 percentage of untreated control (UTC)	130 percentage of untreated control (UTC)	201 percentage of untreated control (UTC)	150 percentage of untreated control (UTC)	–
AGCCTATCCTGGATTACTTGAA (anti-miR; chemistry not fully specified) [ISIS 327907, uniform 2′-MOE PS; targets mir-26a]	–	–	–	–	–	percentage of aneuploid cells ([1]; 150 nM, 72 hours (Table 29)): higher than average percentages of aneuploid cells; percentage of cells with hypodiploid DNA content (subG1) ([1]; 150 nM, 72 hours (Table 29)): increased percentage of cells with hypodiploid DNA content
CCGAGCTCTCTTATCAACAG (e[5mC]*e[5mC]*eG*eA*eG*d[5mC]*dT*d[5mC]*dT*d[5mC]*dT*dT*dA*dT*d[5mC]*eA*eA*e[5mC]*eA*eG) [ISIS 183891, 5-10-5 gapmer targeting kinesin-like 1 (Eg5), positive control, reference compound]	–	–	–	–	–	cell cycle delay or arrest in all cell lines ([1]; BJ 200 nM, T47D, T47Dp53, HeLa, B16 150 nM, 48 hours): delay or arrest in G2/M phase
TACTTTATATAGAACACAAG (chemistry not given here) [ISIS 340365, 5-10-5 gapmer PS; targets mir-92-2]	–	–	–	–	–	percentage of aneuploid cells ([1]; 150 nM, 72 hours (Table 29)): higher than average percentages of aneuploid cells
TCATAGCCCTGTACAATGCTGCT (anti-miR; chemistry not fully specified) [ISIS 327906, uniform 2′-MOE PS; targets mir-103-1]	–	–	–	–	–	percentage of cells in the G2/M phase ([1]; 150 nM, 72 hours (Table 29)): increased percentage of cells in the G2/M phase; percentage of cells with hypodiploid DNA content (subG1) ([1]; 150 nM, 72 hours (Table 29)): increased percentage of cells with hypodiploid DNA content
TNF-alpha	–	–	–	–	–	TG (triglyceride accumulation) [2, 11]: 10.0 percentage of control; TG (triglyceride accumulation) [2, 12]: 14.5 percentage of control; AP2 mRNA ([3]; Table 17): 5.5 percentage of control; AP2 mRNA ([3]; Table 18): 9.6 percentage of control; PPAR gamma mRNA [4, 11]: 18.8 percentage of control; PPAR gamma mRNA [4, 12]: 27.9 percentage of control; GLUT4 mRNA [5, 11]: 0.5 percentage of control; GLUT4 mRNA [5, 12]: 1.9 percentage of control; HSL mRNA [6, 11]: 0.7 percentage of control; HSL mRNA [6, 12]: 3.1 percentage of control
